Results taken from article PMC12756739 (ACS Omega, 2025).
One block for each molecule: values may come before it.

Key:
[1] = target: T1, COX-2 enzyme (Homo sapiens, UniProt P35354); assay: biochemical
T1 sequence (P35354 18-604): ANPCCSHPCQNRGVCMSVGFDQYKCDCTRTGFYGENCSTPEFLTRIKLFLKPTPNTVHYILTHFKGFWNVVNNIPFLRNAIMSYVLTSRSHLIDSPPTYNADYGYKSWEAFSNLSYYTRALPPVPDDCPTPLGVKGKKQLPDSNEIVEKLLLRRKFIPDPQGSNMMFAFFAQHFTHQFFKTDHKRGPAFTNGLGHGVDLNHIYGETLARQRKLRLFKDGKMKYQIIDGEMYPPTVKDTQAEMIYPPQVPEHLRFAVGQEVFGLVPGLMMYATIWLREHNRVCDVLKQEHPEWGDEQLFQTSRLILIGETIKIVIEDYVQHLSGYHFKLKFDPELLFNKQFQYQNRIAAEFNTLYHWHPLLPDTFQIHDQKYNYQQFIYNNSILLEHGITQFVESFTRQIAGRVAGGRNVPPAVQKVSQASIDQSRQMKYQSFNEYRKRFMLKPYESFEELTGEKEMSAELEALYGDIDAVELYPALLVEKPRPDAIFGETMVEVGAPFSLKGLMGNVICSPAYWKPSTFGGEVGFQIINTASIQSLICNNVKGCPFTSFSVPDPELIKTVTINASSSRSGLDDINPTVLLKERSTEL

[2] = test system: MCF-7 cell line; assay: MTT cytotoxicity test, MCF-7 cell line; assay type: cell-based; details: Homo sapiens, MCF7, read-out: IC50 (μM) MCF-7
[3] = test system: NIH3T3 cells; assay: MTT cytotoxicity test, NIH3T3 cell line; assay type: cell-based; details: Mus musculus, NIH3T3, read-out: IC50 (μM) NIH3T3
[4] = test system: A549 cell line; assay: MTT cytotoxicity test, A549 cell line; assay type: cell-based; details: Homo sapiens, A549, read-out: IC50 (μM) A549
[5] = test system: carbonic anhydrase IX (CA IX); details: ref Fadaly et al.; cited from earlier work
[6] = test system: carbonic anhydrase XII (CA XII); details: ref Fadaly et al.; cited from earlier work
[7] = test system: tubulin polymerization; details: read-out: IC50 antitubulin polymerization assay; ref Mohamed et al.; cited from earlier work
[8] = test system: HDAC1; details: read-out: IC50 HDAC1; ref Mohamed et al.; cited from earlier work
[9] = target: CA IX; details: read-out: inhibition constant CA IX; ref Mohamed et al.; cited from earlier work
[10] = target: CA XII; details: read-out: inhibition constant CA XII; ref Mohamed et al.; cited from earlier work
[11] = test system: HDAC2; details: read-out: IC50 HDAC2; ref Mohamed et al.; cited from earlier work
[12] = test system: COX-2; details: ref Fadaly et al.; cited from earlier work
[13] = test system: EGFR^WT; details: ref Fadaly et al.; cited from earlier work
[14] = test system: EGFR^L858R/T790M; details: ref Fadaly et al.; cited from earlier work
[15] = test system: CDK12; details: ref Abdalla et al.; cited from earlier work
[16] = test system: CDK2; details: ref Abdalla et al.; cited from earlier work
[17] = test system: CDK6; details: ref Abdalla et al.; cited from earlier work
[18] = test system: topoisomerase II; details: ref Ewieda et al.; cited from earlier work
[19] = test system: VEGFR-2; details: read-out: IC50 VEGFR-2; ref Abd El-Mawgoud et al.; cited from earlier work
[20] = test system: AKT-1; details: read-out: IC50 AKT-1; ref Abd El-Mawgoud et al.; cited from earlier work

IC50 [1]: 0.721 ± 0.03 µM
Compound: O=C(CSc1nnc(NC(=O)c2ccc(F)cc2)s1)Nc1ccc(Cl)cc1 [3n, 4-Fluoro-N-(5-((2-((4-chlorophenyl)amino)-2-oxoethyl)thio)-1,3,4-thiadiazol-2-yl)benzamide]
IC50 [2]: > 100 µM
IC50 [3]: > 100 µM
IC50 [4]: > 100 µM

IC50 [1]: > 1000 µM
Compound: COc1ccc(C(=O)Nc2nnc(SCC(=O)Nc3ccccc3)s2)cc1 [3p, 4-Methoxy-N-(5-((2-oxo-2-(phenylamino)ethyl)thio)-1,3,4-thiadiazol-2-yl)benzamide]
IC50 [2]: > 100 µM
IC50 [3]: > 100 µM
IC50 [4]: > 100 µM

IC50 [1]: > 100 µM
Compound: COc1ccc(C(=O)Nc2nnc(SCC(=O)Nc3ccc(C(F)(F)F)cc3)s2)cc1 [3r, 4-Methoxy-N-(5-((2-oxo-2-((4-(trifluoromethyl)phenyl)amino)ethyl)thio)-1,3,4-thiadiazol-2-yl)benzamide]
IC50 [2]: 43.1 ± 2.06 µM
IC50 [3]: 47.6 ± 1.77 µM
IC50 [4]: > 100 µM

IC50 [1]: > 100 µM
Compound: COc1ccc(C(=O)Nc2nnc(SCC(=O)Nc3ccc(Cl)cc3)s2)cc1 [3t, 4-Methoxy-N-(5-((2-oxo-2-((4-chlorophenyl)amino)ethyl)thio)-1,3,4-thiadiazol-2-yl)benzamide]
IC50 [2]: > 100 µM
IC50 [3]: > 100 µM
IC50 [4]: > 100 µM

Compound: COc1ccc(-c2csc(N3N=C(c4nnn(-c5ccc(S(N)(=O)=O)cc5)c4C)CC3c3ccc(OC)cc3)n2)cc1 (stereo not drawn) [4-(4-(5-(4-methoxyphenyl)-1-(4-(4-methoxyphenyl)thiazol-2-yl)-4,5-dihydro-1H-pyrazol-3-yl)-5-methyl-1H-1,2,3-triazol-1-yl)benzenesulfonamide]
activity against CA IX [5]: 0.025 µM
activity against CA XII [6]: 0.031 µM

Compound: NS(=O)(=O)c1ccc(NC(=O)COc2ccc(/C=C/C(=O)c3ccc(Br)cc3)cc2)cc1 [(E)-2-(4-(3-(4-bromophenyl)-3-oxoprop-1-en-1-yl)phenoxy)-N-(4-sulfamoylphenyl)acetamide]
IC50 [7]: 2.56 µM
IC50 [8]: 0.134 µM
Ki [9]: 0.072 ± 0.00258 µM
Ki [10]: 0.0508 ± 0.00258 µM
IC50 [11]: 0.0663 µM

Compound: CS(=O)(=O)c1ccc(-n2cc(/C=N/c3ccc(NC(=O)CO[N+](=O)[O-])cc3)c(-c3ccc(Br)cc3)n2)cc1 [(E)-2-((4-(((3-(4-bromophenyl)-1-(4-(methylsulfonyl)phenyl)-1H-pyrazol-4-yl)methylene)amino)phenyl)amino)-2-oxoethyl nitrate]
activity against COX-2 [12]: 0.437 µM
activity against EGFR^WT [13]: 0.452 µM
activity against EGFR^L858R/T790M [14]: 0.031 µM

Compound: Nc1ccccc1C(=O)O [Anthranilic acid]
activity against CDK12 [15]: 0.82 µM
activity against CDK2 [16]: 0.67 µM
activity against CDK6 [17]: 0.48 µM

Compound: Br.CCOC(=O)C1=C(c2ccccc2)N=C2SC=C(c3ccc(C)cc3)N2C1c1ccc(Br)cc1 (stereo not drawn) [Ethyl 5-(4-bromophenyl)-3-(4-methylphenyl)-7-phenyl-5H-thiazolo[3,2-a]pyrimidine-6-carboxylate hydrobromide]
activity against topoisomerase [18]: 0.94 µM

Compound: Nc1nc2c3c(N)c(-c4nnc(NC(=O)c5ccccc5)s4)sc3ncn2n1 [N-(5-(2,9-diaminothieno[3,2-e]1,3,4-triazolo[1,5-c]pyrimidin-8-yl)-1,3,4-thiadiazol-2-yl)benzamide]
IC50 [19]: 0.164 µM
IC50 [20]: 0.452 µM

Compound: COc1cccc2c1C(=O)c1c(O)c3c(c(O)c1C2=O)C[C@@](O)(C(=O)CO)C[C@@H]3O[C@H]1C[C@H](N)[C@H](O)[C@H](C)O1 [doxorubicin, reference compound]
IC50 [3]: > 100 µM
